Measurements taken from patent US20220370464A1, “COMPOSITIONS AND METHODS OF TREATING OR PREVENTING OCULAR INFECTIONS WITH FILOCICLOVIR” (Microbiotix, Inc., priority 2019, published 2022).
Like-named read-outs stand apart in the source and are kept apart here.

Columns and labels:
[1] = system: human foreskin fibroblast (HFF) cells; assay: Cytotoxicity, CellTiter-Glo cell viability in HFF cells
Experimental: (§1) Human foreskin tissue was obtained from the University of Alabama at Birmingham tissue procurement facility with approval from the Institutional Review Board. The tissue was stored at 4° C. in cell culture medium consisting of minimum essential media (MEM) with Earle's salts supplemented with 10% fetal bovine serum (FBS; HyClone, Inc., Logan, Utah) and standard concentration of L-glutamine, amphotericin B (Fungizone), and vancomycin. The tissue was then placed in a phosphate-buffered saline solution, minced, and rinsed to remove the red blood cells. Tissue fragments were then resuspended in a trypsin-EDTA solution and incubated at 37° C. to disperse the cells, which were then collected by centrifugation. Cell pellets were then resuspended in 4 ml culture medium, placed in a 25-cm^2 tissue culture flask, and incubated at 37° C. for 24 h. The culture medium was then replaced with fresh medium and condition of the cells was monitored daily until a confluent cell monolayer was formed. The HFF cells were then expanded through serial passages in standard growth medium of MEM with Earle's salts supplemented with 10% FBS, L-glutamine, penicillin, and gentamicin. Each lot of cells was confirmed to be free of mycoplasma infection and routinely passaged or used for assays at or before passage 10.
(§2) Antiviral and cytotoxicity data were obtained in a series of three to five separate experiments for each virus to provide an accurate estimate of antiviral activity and statistical data. Each assay included positive and negative control compounds as well as infected and uninfected controls to ensure the integrity of the experiment.
(§3) The CPE reduction assays were performed in monolayers of human foreskin fibroblast (HFF) cells (5000/well) in 384-well plates in assay media consisting of MEM with Earle's salts, 2% FBS and standard concentrations of L-glutamine, penicillin and gentamycin. 5000 cells were seeded in 384-well microtiter plates and incubated at 37° C. in a humidified 5% CO2 incubator for 24 hours to allow for formation of confluent monolayers.
(§4) Cell monolayers were infected at a multiplicity of infection (MOI) of approximately 0.005 PFU/cell with virus strains including AdV5. […] Cytopathology was determined by the addition of CellTiter-Glo® reagent (Promega, Madison, Wis.).

Adenovirus 5 (AdV5) = assay: Cytopathic effects (CPE) reduction assay, AdV5 in HFF cells, 384-well; assay type: cell-based, human adenovirus 5 (AdV5); details: for EC50: AdV 384 Well CPE, HFF cells, average and SD from five independent experiments
Experimental: Cell monolayers were infected at a multiplicity of infection (MOI) of approximately 0.005 PFU/cell with virus strains including AdV5. […] Cytopathology was determined by the addition of CellTiter-Glo® reagent (Promega, Madison, Wis.). Concentrations of antiviral test compounds sufficient to reduce CPE by 50% (EC50) were interpolated from the experimental data using standard methods in Microsoft® Excel.

[2] = Cytotoxicity, CellTiter-Glo cell viability in HFF cells; details: human, human foreskin fibroblast (HFF) cells
Experimental: as §1, §2, §3, §4

ocular AdV infections = details: topical, literature; cited from earlier work
[3] = HFF cells, 384-well, average and SD from five independent experiments

Compound `O=c1[nH]c(=S)c(I)cn1[C@H]1C[C@H](O)[C@@H](CO)O1` [4-thio-IDU, 4-thioidoxuridine] has a CC50 [1, 3] of 26 ± 24 µM and an EC50 (Adenovirus 5 (AdV5); Human mastadenovirus C) of 11 ± 9.4 µM.

In the case of `Nc1nc2c(ncn2COCCO)c(=O)[nH]1` [ACV, acyclovir], the CC50 [2] is reported as > 100 µM.

For `OC[C@H]1O[C@@H](n2c(Br)nc3cc(Cl)c(Cl)cc32)[C@H](O)[C@@H]1O` [BDCRB, bromodichlororibobenzimidazole], the CC50 [1, 3] was 91 ± 13 µM and the EC50 (Adenovirus 5 (AdV5)) was 70 ± 39 µM.

For `O=c1[nH]c(=O)n([C@@H]2O[C@H](CO)[C@@H](O)[C@@H]2F)cc1I` [FIAU], the CC50 [1] was > 100 µM and the EC50 (Adenovirus 5 (AdV5)) was > 100 µM.

For `Nc1nc(O)c2ncn(COC(CO)CO)c2n1` [GCV, ganciclovir], the CC50 [2] is listed as > 100 µM, the selectivity ratio (Adenovirus 5 (AdV5); human, adenovirus 5, HFF cells, read-out: SI (selective index, CC50/EC50)) is listed as ≥ 1.5 and the “efficacy in the treatment of AdV conjunctivitis in clinical trials” value (ocular AdV infections) is listed as “lacks efficacy”.

For `O=c1[nH]c(=O)n([C@@H]2CO[C@H](CO)O2)cc1/C=C/Br` [L-BHDU, L-Bromovinyl-Hydroxymethyl-Dioxolan Uracil], the CC50 [1] was > 100 µM and the EC50 (Adenovirus 5 (AdV5)) was > 100 µM.

`Cc1cn([C@H]2C[C@H](O)[C@]3(CO)C[C@H]23)c(=O)[nH]c1=O` [N-MCT, N-methanocarbathymidine] showed a CC50 [1, 3] of 72 ± 33 µM and an EC50 (Adenovirus 5 (AdV5)) of 57 ± 47 µM.

For `Nc1ncnc2c1ncn2CCOCP(=O)(O)O` [PMEA, adefovir], the CC50 [1, 3] was > 100 µM.
